The source made the active and inactive calls. The calls are words filed in the database; no cut-off is given here.
How the values were obtained:
[1] = target: T1, Amine oxidase [flavin-containing] A (Homo sapiens, UniProt P21397)
T1 sequence (P21397 whole entry): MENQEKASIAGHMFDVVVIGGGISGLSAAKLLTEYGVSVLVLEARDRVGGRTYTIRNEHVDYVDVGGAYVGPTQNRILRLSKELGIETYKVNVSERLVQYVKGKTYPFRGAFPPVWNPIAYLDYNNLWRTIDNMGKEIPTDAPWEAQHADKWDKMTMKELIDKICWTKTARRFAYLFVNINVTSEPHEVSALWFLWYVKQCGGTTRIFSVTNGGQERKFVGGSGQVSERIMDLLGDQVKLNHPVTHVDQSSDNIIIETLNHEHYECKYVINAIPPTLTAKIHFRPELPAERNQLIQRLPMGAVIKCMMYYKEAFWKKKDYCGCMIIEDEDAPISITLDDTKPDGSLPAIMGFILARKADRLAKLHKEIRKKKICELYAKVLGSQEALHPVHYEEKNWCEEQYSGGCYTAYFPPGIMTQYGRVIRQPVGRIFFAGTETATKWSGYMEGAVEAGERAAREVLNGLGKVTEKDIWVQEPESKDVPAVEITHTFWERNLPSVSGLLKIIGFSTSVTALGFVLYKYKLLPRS

Cholinesterase = Cholinesterase (Equus caballus, UniProt P81908)
Homo sapiens = organism: Homo sapiens; test: Selectivity index, ratio of IC50 for human MAO-B to IC50 for human MAO-A
[2] = target: T2, Amine oxidase [flavin-containing] B (Homo sapiens, UniProt P27338)
T2 sequence (P27338 whole entry): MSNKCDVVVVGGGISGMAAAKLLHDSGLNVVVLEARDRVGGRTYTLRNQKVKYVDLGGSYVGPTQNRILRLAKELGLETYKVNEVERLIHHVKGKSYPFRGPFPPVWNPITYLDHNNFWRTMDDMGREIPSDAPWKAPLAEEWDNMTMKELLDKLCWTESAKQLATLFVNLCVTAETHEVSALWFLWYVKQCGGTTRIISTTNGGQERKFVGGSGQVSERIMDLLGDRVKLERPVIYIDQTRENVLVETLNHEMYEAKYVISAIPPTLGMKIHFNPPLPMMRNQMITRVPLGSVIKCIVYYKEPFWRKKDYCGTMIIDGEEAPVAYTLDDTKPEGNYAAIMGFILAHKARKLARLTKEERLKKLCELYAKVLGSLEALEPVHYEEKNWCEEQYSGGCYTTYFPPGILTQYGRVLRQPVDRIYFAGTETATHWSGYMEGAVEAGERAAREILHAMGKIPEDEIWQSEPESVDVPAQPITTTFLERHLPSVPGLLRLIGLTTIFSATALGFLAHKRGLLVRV

Acetylcholinesterase = Acetylcholinesterase (Electrophorus electricus, UniProt O42275); test: Inhibition of electric eel AChE using acetylthiocholine iodide as substrate incubated for 6 mins prior to substrate addition measured after 60 to 180 secs by Ellman's method
[3] = Cytotoxicity against human SH-SY5Y cells assessed as cell viability at 25 uM after 24 hrs by MTT assay; format: cell-based; settings: read-out: Activity
[4] = Cytotoxicity against human SH-SY5Y cells assessed as cell viability at 50 uM after 24 hrs by MTT assay; format: cell-based; settings: read-out: Activity
[5] = Cytotoxicity against human SH-SY5Y cells assessed as cell viability at 5 uM after 24 hrs by MTT assay; format: cell-based; settings: read-out: Activity
[6] = Cytotoxicity against human SH-SY5Y cells assessed as cell viability at 10 uM after 24 hrs by MTT assay; format: cell-based; settings: read-out: Activity
[7] = Cytotoxicity against human SH-SY5Y cells assessed as cell viability at 1 uM after 24 hrs by MTT assay; format: cell-based; settings: read-out: Activity
[8] = target: Acetylcholinesterase (Electrophorus electricus) (UniProt O42275); test: Mixed-type inhibition of electric eel AChE using acetylthiocholine iodide as substrate incubated for 15 mins prior to substrate addition by Lineweaver-Burk plot analysis
Sequence of Acetylcholinesterase (Electrophorus electricus) (O42275 24-633 limits assumed): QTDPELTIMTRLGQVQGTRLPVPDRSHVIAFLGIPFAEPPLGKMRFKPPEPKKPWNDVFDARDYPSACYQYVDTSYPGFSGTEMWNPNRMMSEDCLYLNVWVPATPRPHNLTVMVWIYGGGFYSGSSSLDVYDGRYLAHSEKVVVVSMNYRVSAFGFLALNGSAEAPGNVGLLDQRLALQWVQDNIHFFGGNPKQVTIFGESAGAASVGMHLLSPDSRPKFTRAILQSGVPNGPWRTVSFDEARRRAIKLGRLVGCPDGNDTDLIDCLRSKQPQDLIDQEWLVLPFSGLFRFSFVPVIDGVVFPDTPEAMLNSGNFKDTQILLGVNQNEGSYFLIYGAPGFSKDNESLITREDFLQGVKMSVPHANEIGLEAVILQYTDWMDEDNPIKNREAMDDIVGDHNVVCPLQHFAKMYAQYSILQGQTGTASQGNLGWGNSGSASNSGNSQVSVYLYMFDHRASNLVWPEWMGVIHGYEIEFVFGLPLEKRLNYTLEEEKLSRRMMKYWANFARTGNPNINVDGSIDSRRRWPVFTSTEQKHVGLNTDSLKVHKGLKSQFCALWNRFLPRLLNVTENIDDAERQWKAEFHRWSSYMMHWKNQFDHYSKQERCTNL

Sequence of Cholinesterase (P81908 whole entry): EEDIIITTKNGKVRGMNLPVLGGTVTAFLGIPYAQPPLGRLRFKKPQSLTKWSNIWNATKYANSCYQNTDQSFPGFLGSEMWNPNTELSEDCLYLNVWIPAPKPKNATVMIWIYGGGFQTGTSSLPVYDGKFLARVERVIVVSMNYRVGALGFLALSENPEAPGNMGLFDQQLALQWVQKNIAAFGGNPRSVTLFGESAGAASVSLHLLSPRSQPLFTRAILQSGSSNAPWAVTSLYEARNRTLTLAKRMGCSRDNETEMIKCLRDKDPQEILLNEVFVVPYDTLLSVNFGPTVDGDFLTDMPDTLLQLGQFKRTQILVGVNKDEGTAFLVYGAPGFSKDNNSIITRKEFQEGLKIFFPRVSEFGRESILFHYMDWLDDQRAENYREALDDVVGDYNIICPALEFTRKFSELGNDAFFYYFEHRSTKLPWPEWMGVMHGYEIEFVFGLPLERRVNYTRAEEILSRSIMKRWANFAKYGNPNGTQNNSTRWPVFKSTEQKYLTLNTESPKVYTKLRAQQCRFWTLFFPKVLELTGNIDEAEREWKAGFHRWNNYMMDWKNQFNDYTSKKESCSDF
Sequence of Acetylcholinesterase (O42275 whole entry): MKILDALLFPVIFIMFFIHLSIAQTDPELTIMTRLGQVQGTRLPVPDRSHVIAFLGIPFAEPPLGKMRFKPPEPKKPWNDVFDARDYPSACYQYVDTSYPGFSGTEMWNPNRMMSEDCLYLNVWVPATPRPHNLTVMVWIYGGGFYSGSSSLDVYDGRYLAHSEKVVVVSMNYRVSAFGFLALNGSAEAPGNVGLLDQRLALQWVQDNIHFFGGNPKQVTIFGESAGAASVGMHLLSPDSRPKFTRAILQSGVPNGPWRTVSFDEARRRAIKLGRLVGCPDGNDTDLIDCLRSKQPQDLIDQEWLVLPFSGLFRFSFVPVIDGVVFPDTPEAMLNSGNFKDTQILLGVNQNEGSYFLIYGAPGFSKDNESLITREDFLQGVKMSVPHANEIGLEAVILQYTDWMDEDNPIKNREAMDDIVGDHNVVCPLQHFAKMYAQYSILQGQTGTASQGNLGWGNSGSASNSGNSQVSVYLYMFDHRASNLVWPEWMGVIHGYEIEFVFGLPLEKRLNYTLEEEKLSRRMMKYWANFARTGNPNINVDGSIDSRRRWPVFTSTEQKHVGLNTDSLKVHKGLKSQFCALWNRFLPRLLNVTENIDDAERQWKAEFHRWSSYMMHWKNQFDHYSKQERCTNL

COc1cc(/C=C/c2ccc(OCCCCCCN(C)Cc3ccccc3)cc2)cc(OC)c1
IC50 [1]: 90.4 µM | IC50 (Cholinesterase): 26.4 µM | Ratio IC50 (Homo sapiens): 0.45 | IC50 [2]: 40.3 µM | IC50 (Acetylcholinesterase): 11.7 µM

COc1cc(/C=C/c2ccc(OCCCCCCN(C)C)cc2)cc(OC)c1
IC50 [1]: 37.5 µM | IC50 (Cholinesterase): 10.3 µM | Ratio IC50 (Homo sapiens): 0.2 | IC50 [2]: 7.52 µM | IC50 (Acetylcholinesterase): 8.19 µM

COc1cc(/C=C/c2ccc(OCCCCCCN3CCCC3)cc2)cc(OC)c1
viability at 24 h, 25 µM [3]: 93.2% | IC50 [1]: 17.6 µM | viability at 24 h, 50 µM [4]: 90.8% | IC50 (Cholinesterase): 8.04 µM | viability at 24 h, 5 µM [5]: 95.6% | Ratio IC50 (Homo sapiens): 0.7 | viability at 24 h, 10 µM [6]: 94.4% | viability at 24 h, 1 µM [7]: 97% | IC50 [2]: 12.2 µM | IC50 (Acetylcholinesterase): 6.55 µM

Oc1ccc(/C=C/c2cc(O)cc(O)c2)cc1 [RESVERATROL]
IC50 (Cholinesterase): 752 µM | IC50 (Acetylcholinesterase): 165 µM

COc1cc(/C=C/c2ccc(OCCCCCCN3CCCCC3C)cc2)cc(OC)c1 (stereo unspecified)
IC50 [1]: 24.3 µM | IC50 (Cholinesterase): 10.1 µM | Ratio IC50 (Homo sapiens): 0.67 | IC50 [2]: 16.3 µM | IC50 (Acetylcholinesterase): 4.07 µM

CCN(CCCCCCOc1ccc(/C=C/c2cc(OC)cc(OC)c2)cc1)Cc1cccc(F)c1
IC50 [1]: > 100 µM | IC50 (Cholinesterase): 52 µM | Ratio IC50 (Homo sapiens): < 0.97 | IC50 [2]: 97.5 µM | IC50 (Acetylcholinesterase): 77.8 µM

COc1cc(/C=C/c2ccc(OCCN(C)Cc3ccccc3)cc2)cc(OC)c1
IC50 [1]: > 100 µM | IC50 (Cholinesterase): 89.6 µM | Ratio IC50 (Homo sapiens): < 0.89 | IC50 [2]: 89 µM | IC50 (Acetylcholinesterase): 79.3 µM

CCN(CCCCCCOc1ccc(/C=C/c2cc(OC)cc(OC)c2)cc1)Cc1ccc(F)cc1
IC50 [1]: > 100 µM | IC50 (Cholinesterase): 85.4 µM | IC50 [2]: > 100 µM | IC50 (Acetylcholinesterase): 92.3 µM

COc1cc(/C=C/c2ccc(OCCCCN(C)Cc3ccccc3)cc2)cc(OC)c1
IC50 [1]: > 100 µM | IC50 (Cholinesterase): 40.6 µM | Ratio IC50 (Homo sapiens): < 0.35 | IC50 [2]: 34.6 µM | IC50 (Acetylcholinesterase): 60.9 µM

CCN(CCCCCCOc1ccc(/C=C/c2cc(OC)cc(OC)c2)cc1)Cc1ccccc1OC
IC50 [1]: > 100 µM | IC50 (Cholinesterase): 2.27 µM | IC50 [2]: > 100 µM | IC50 (Acetylcholinesterase): 54.9 µM

CCN(CCCCCCOc1ccc(/C=C/c2cc(OC)cc(OC)c2)cc1)Cc1cccc(OC)c1
IC50 [1]: > 100 µM | IC50 (Cholinesterase): > 100 µM | IC50 [2]: > 100 µM | IC50 (Acetylcholinesterase): 71.5 µM

CCCN(CCC)CCCCCCOc1ccc(/C=C/c2cc(OC)cc(OC)c2)cc1
IC50 [1]: 89.4 µM | IC50 (Cholinesterase): 7.49 µM | Ratio IC50 (Homo sapiens): 1.03 | IC50 [2]: 92.4 µM | IC50 (Acetylcholinesterase): 12.1 µM

COc1cc(/C=C/c2ccc(OCCCCCCN3CCOCC3)cc2)cc(OC)c1
IC50 [1]: > 100 µM | IC50 (Cholinesterase): 34.3 µM | IC50 [2]: > 100 µM | IC50 (Acetylcholinesterase): 24.4 µM

CCN(CC)CCCCCCOc1ccc(/C=C/c2cc(OC)cc(OC)c2)cc1
IC50 [1]: 33.1 µM | IC50 (Cholinesterase): 13.2 µM | Ratio IC50 (Homo sapiens): 0.31 | IC50 [2]: 10.1 µM | IC50 (Acetylcholinesterase): 4.15 µM

CCN(CCCCCCOc1ccc(/C=C/c2cc(OC)cc(OC)c2)cc1)Cc1ccccc1
IC50 [1]: 89.6 µM | IC50 (Cholinesterase): 3.64 µM | Ratio IC50 (Homo sapiens): 0.65 | inhibition [8]: Active | IC50 [2]: 58.3 µM | IC50 (Acetylcholinesterase): 1.56 µM

CCN(CCCCCCOc1ccc(/C=C/c2cc(OC)cc(OC)c2)cc1)Cc1ccccc1F
IC50 [1]: > 100 µM | IC50 (Cholinesterase): 53 µM | IC50 [2]: > 100 µM | IC50 (Acetylcholinesterase): 86.6 µM

COc1cc(/C=C/c2ccc(OCCCCCN(C)Cc3ccccc3)cc2)cc(OC)c1
IC50 [1]: 97.4 µM | IC50 (Cholinesterase): 43.7 µM | Ratio IC50 (Homo sapiens): 0.16 | IC50 [2]: 16.2 µM | IC50 (Acetylcholinesterase): 39.2 µM

COc1cc(/C=C/c2ccc(OCCCCCCN3CCCCC3)cc2)cc(OC)c1
IC50 [1]: 29.8 µM | IC50 (Cholinesterase): 10.7 µM | Ratio IC50 (Homo sapiens): 0.48 | IC50 [2]: 14.2 µM | IC50 (Acetylcholinesterase): 5.02 µM

COc1cc(/C=C/c2ccc(OCCCCCCN3CCC(O)CC3)cc2)cc(OC)c1
IC50 [1]: > 100 µM | IC50 (Cholinesterase): 23.1 µM | Ratio IC50 (Homo sapiens): < 0.14 | IC50 [2]: 14.6 µM | IC50 (Acetylcholinesterase): 17.2 µM

COc1cc(/C=C/c2ccc(OCCCCCCCCN(C)Cc3ccccc3)cc2)cc(OC)c1
IC50 [1]: > 100 µM | IC50 (Cholinesterase): 46.8 µM | IC50 [2]: > 100 µM | IC50 (Acetylcholinesterase): 26.5 µM

CCN(CCCCCCOc1ccc(/C=C/c2cc(OC)cc(OC)c2)cc1)Cc1ccc(OC)cc1
IC50 [1]: > 100 µM | IC50 (Cholinesterase): > 100 µM | IC50 [2]: > 100 µM | IC50 (Acetylcholinesterase): 89.7 µM

COc1cc(/C=C/c2ccc(OCCCN(C)Cc3ccccc3)cc2)cc(OC)c1
IC50 [1]: > 100 µM | IC50 (Cholinesterase): 77.3 µM | Ratio IC50 (Homo sapiens): < 0.5 | IC50 [2]: 5.01 µM | IC50 (Acetylcholinesterase): 58.1 µM

COc1cc(/C=C/c2ccc(OCCCCCCCN(C)Cc3ccccc3)cc2)cc(OC)c1
IC50 [1]: > 100 µM | IC50 (Cholinesterase): 41.7 µM | Ratio IC50 (Homo sapiens): < 0.64 | IC50 [2]: 63.8 µM | IC50 (Acetylcholinesterase): 23.4 µM

From ChEMBL document CHEMBL3132840 (Medchemcomm, 2014)
